The target in test [1] is T1, Short transient receptor potential channel 4 (Mus musculus, UniProt Q9QUQ5).
T1 sequence (Q9QUQ5 whole entry): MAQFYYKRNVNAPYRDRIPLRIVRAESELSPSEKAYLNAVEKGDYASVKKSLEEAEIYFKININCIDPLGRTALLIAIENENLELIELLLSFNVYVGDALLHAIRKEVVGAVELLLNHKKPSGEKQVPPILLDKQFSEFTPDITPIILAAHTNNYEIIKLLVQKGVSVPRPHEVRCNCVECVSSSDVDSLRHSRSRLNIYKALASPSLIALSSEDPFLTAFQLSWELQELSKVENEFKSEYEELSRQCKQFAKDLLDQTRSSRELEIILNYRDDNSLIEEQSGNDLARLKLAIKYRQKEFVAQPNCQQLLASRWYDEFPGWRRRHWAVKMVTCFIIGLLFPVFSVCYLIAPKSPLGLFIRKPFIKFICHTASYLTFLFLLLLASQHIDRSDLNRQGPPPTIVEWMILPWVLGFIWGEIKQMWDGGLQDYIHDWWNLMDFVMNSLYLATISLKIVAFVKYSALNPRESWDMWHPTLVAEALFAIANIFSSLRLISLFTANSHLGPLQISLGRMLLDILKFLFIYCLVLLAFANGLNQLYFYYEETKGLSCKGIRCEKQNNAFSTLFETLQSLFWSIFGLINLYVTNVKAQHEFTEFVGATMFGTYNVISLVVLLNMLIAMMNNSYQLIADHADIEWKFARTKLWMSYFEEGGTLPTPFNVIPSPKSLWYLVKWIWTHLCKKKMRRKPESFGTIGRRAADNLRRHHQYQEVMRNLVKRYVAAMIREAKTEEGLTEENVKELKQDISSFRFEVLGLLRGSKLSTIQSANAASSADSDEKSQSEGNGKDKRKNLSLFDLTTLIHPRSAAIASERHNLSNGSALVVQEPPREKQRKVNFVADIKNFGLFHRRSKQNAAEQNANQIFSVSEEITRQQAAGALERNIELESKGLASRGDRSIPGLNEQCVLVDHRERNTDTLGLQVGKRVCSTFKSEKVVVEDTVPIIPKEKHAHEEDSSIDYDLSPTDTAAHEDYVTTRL
Kind of test: potentiation of DAMGO-evoked TRPC4 calcium signal – cell-based, HEK293 TRPC4/mu-opioid, Fluo-4 calcium, EC20 DAMGO, dose response (AID 434941).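 Further: HEK293 cells coexpressing TRPC4 and mu opioid receptor stimulated by EC20 DAMGO.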 The format is functional.

The next test relates to T-cell. Briefly: loss of vesicle association with mouse CD8+ T cells – mouse 2C CD8+ T cells, flow cytometry, dose response (AID 485284). The format is functional. Background: A flow cytometer gives signals particle by particle.
The target of test [2] is G-protein coupled receptor 55 (Homo sapiens, UniProt Q9Y2T6). Briefly: selective activators of receptor GPR55 – imaging, U2OS cells, beta-arrestin-GFP redistribution, primary screen (AID 1961). The format is functional.
G-protein coupled receptor 55, sequence (Q9Y2T6 whole entry): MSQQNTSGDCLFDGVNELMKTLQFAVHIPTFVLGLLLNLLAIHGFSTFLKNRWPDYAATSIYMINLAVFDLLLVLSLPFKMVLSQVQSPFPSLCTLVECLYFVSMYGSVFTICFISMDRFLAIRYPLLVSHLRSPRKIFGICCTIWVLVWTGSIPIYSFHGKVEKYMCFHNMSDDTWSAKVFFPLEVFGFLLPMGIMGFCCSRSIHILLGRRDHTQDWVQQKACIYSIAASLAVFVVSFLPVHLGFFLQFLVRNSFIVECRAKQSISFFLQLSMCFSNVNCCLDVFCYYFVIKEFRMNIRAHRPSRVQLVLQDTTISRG
Test [3] concerns the target T2, Polyadenylate-binding protein 1 (Homo sapiens, UniProt P11940). Briefly: PABP inhibition in translation initiation, SAR follow-up (AID 435018). The format is functional.
The target in test [4] is T2, Polyadenylate-binding protein 1. Briefly: blockers of PABP interaction with poly(A) – biochemical, fluorescence polarization, […] (AID 2014). In general terms: Polarisation of emitted light reports the rotation of a fluorescent probe.
For test [5], the target named is T3, Eukaryotic translation initiation factor 4H (Homo sapiens, UniProt Q15056). Kind of test: inhibitors of translation initiation factor eIF4H – SAR follow-up (AID 435011). The format is functional.
The target of test [6] is T3, Eukaryotic translation initiation factor 4H. Kind of test: eIF4H binding inhibition – biochemical, uHTS, fluorescence polarization, translation initiation inhibitor project, primary screen (AID 2012).
The target of test [7] is Heat shock protein HSP 90-alpha (Homo sapiens, UniProt P07900). The format is functional, organism-based.
Another test concerns the target Cytochrome P450 2C9 (Homo sapiens, UniProt P11712).
Another test concerns the target Cytochrome P450 2C19 (Homo sapiens, UniProt P33261). Briefly: Cytochrome panel assay with activity outcomes. Panel member name: p450-cyp2c19 Compounds with AC50 equal or less than 10 uM are considered active. The format is functional. As to conditions: read-out: AC50.
Test [8] in a line: viability of PTEN-deleted HCT116 cells – cell-based, HCT116 PTEN knockout, dose response (AID 1047).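 Further: HCT116 colon tumor cells with PTEN knocked out; cells exposed to compound for 60 hours before readout; potency for loss of cell viability measured by luminescence.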 The format is functional.
Test [9] can be described thus: viability of HCT116 lacking mutant beta-catenin – cell-based, human colon tumor, dose response (AID 1045).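 Further: HCT116 colon tumor cells with beta catenin knocked out; cells exposed to compound for 60 hours.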 The format is functional.
Test [10] in a line: Luminescence Cell-Based Dose Retest to Confirm Inhibitors of Cancer Stem Cells. [Related pubchem assays (depositor defined):AID2717, AID2721]. The format is functional. As to conditions: Homo sapiens.
A further test deals with Beta-galactosidase (Escherichia coli, UniProt Q8VNN2). Briefly: detection-enzyme interference by beta-gal modulators – biochemical, E. coli enzyme, set 3, artefact control for CCR6 antagonist project, dose response (AID 504712). The format is functional.
Beta-galactosidase, sequence (Q8VNN2 whole entry): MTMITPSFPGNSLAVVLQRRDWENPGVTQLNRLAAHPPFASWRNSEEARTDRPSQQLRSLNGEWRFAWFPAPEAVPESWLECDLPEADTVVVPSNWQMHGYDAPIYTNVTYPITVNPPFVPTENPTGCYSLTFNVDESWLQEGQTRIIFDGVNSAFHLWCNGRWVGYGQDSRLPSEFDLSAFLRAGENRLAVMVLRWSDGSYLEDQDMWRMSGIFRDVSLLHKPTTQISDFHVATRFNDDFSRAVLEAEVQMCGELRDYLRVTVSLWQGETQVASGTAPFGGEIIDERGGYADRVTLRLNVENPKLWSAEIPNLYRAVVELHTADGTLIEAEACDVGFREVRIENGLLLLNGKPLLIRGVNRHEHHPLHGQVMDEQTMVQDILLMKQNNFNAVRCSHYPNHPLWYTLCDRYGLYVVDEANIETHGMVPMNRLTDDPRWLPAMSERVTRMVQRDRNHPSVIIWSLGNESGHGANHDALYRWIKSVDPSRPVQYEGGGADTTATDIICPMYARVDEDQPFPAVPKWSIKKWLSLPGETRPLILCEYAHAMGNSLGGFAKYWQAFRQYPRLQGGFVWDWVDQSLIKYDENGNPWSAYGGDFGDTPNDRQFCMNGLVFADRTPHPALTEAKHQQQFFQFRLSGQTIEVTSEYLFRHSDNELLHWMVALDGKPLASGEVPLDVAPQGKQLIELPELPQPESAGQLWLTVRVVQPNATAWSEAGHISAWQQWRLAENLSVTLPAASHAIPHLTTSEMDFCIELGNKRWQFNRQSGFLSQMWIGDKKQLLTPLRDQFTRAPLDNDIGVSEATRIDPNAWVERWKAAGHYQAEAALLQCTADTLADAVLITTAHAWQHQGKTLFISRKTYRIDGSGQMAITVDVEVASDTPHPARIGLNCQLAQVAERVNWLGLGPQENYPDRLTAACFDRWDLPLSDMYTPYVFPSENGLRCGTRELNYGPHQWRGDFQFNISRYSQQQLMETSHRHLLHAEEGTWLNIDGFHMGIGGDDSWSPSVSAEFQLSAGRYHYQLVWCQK
The next test has as its system INS1. Kind of test: INS-1E survival protection against cytokine death – cell-based, luminescence, retest, dose response (AID 449756).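 Further: cell death triggered by IL-1 beta plus TNF-alpha plus IFN-gamma mixture; protective hits raise ATP signal compared with cytokine alone wells.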 The format is functional. As to conditions: Rattus norvegicus.

Calls of active or inactive are those of the source.

T2 sequence (P11940 whole entry): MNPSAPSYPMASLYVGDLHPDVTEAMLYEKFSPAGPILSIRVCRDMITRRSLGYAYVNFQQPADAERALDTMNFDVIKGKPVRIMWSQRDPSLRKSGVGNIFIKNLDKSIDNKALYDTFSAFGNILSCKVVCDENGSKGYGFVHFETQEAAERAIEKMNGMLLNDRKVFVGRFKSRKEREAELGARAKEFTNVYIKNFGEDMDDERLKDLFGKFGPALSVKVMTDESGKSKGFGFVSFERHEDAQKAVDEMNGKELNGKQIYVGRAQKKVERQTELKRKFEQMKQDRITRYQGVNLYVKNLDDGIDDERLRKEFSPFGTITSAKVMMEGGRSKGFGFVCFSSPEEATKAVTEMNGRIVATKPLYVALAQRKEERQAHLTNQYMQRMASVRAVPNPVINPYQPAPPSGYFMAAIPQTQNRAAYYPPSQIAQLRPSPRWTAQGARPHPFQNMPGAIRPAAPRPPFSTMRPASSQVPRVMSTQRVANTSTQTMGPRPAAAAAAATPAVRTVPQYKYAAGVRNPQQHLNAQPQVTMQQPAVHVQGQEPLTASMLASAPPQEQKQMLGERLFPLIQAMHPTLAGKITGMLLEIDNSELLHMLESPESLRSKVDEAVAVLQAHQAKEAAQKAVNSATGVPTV
Cytochrome P450 2C9, sequence (P11712 whole entry): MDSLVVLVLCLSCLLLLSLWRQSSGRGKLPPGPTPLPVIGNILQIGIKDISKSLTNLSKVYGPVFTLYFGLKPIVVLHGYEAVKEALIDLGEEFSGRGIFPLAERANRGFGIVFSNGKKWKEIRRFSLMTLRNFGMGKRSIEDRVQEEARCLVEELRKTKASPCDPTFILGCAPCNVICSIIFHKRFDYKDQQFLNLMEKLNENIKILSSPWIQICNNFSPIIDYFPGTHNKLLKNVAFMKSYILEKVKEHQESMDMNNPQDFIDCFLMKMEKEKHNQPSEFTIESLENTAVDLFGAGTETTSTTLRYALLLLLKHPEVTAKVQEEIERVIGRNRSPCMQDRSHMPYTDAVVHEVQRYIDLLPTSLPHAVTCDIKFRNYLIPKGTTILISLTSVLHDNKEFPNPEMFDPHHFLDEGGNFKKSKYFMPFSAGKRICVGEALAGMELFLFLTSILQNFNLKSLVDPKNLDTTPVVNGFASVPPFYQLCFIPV
Cytochrome P450 2C19, sequence (P33261 whole entry): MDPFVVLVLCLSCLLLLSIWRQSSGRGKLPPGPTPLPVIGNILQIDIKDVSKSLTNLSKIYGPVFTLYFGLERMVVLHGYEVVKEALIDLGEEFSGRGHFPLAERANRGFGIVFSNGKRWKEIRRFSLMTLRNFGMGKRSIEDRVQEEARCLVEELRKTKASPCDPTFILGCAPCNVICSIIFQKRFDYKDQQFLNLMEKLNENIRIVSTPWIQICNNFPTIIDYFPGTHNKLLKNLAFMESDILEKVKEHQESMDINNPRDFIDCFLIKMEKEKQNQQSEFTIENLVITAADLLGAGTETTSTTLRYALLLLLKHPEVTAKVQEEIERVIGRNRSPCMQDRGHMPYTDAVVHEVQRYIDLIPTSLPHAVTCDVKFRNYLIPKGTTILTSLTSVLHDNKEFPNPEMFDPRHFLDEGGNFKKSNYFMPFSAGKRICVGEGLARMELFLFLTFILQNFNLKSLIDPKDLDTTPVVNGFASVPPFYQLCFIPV

Consider `CCSC1=N/C(=C\c2ccc(OC)cc2)C(=O)N1`, for which the EC50 (usually the concentration at which the effect is half-maximal) in [1] is 3.35 µM (active).
Take `Cc1ccc(C(=O)NCCCN2CCOCC2)c(C)c1`: in the test with T-cell, the EC50 was 22.5 µM (inactive).
Consider `Cc1c(C(=O)N(C)C2CCCCC2)sc2ncnc(N3CCN(c4ccccc4)CC3)c12`, for which the EC50 in [2] is 5.84 µM (active).
With `O=C(Nc1cccc2ncccc12)c1ccc(Cl)cc1`, the concentration for half-maximal inhibition (IC50) (as a rule, the midpoint of a concentration-inhibition curve) is 2.79 µM (active) in test [3], 9.09 µM (active) in test [4], 6.11 µM (active) in test [5] and > 100 µM (inactive) in test [6].
As for `Cc1cccc(NC(=S)N/N=C/c2ccc([N+](=O)[O-])s2)c1`, the AC50 – broadly, the concentration giving half of the maximal activity seen – is 15.6 µM (active) in test [7]; 1.78 µM (inconclusive) on Cytochrome P450 2C9; 1.12 µM (inconclusive) on Cytochrome P450 2C19; 1.84 µM (active) in [10]; 3.86 µM (active) with INS1. For the same molecule, the EC50 in test [8] was 3.06 µM (active); in test [9] it was 1.95 µM (active). The IC50 at Beta-galactosidase is > 66.6 µM (inactive).
